# Reference: patent publication US20240091202A1, “COMPOSITIONS FOR THE TREATMENT OF EBV ASSOCIATED DISEASES OR CONDITIONS” (Universität Basel, priority 2021, published 2024)
# Legend:
# [1] = test system: primary B cells infected with EBV B95-8; test: EBV-driven B cell proliferation, CellTrace Violet flow cytometry assay; type: cell-based, human; details: different BMS-986205 concentrations added at 0 hpi; analyzed 8 days post infection; vs vehicle
# Method: Proliferation was analyzed in the presence of vehicle or different BMS-986205 concentrations added on day 0 post EBV-infection of primary B cells (n=2). Uninfected and h.i. EBV infected cells served as internal controls. Proliferation was analyzed 8 days post infection by flow cytometry using a cell trace violet based assay.
# Bulk B cells were stained with CellTraceTM Violet (Cell Proliferation Kit, ThermoFisher) then infected with EBV B95-8 as described above. Proliferation was assessed by determining the number of proliferated cells (cells that had proliferated at least once after infection) with IDO1 inhibitor/number of proliferated cells with vehicle control.
# [2] = test system: primary B cells infected with EBV B95-8; test: EBV-driven B cell transformation efficiency assay (LCL outgrowth); type: cell-based, human; details: for restoration of EBV's capacity to latently infect/transform B cells in the presence of BMS-986205: 10 μM BMS-986205 plus 50 μM L-KYNU or 500 μM NaMN, added day 0; for rescue of the capacity of EBV to transform IDO1-blocked B cells: summary statement, added together with IDO1 inhibitor
# Method: Transformation efficiency was analyzed 5 weeks post infection and plotted against the added multiplicity of infection (MOI).
# Data are represented as median value of indicated individual data points (n=4 independent experiments) relative to Ctrl siRNA (set at one), and compared using two-tailed Student's t-test.
# An IDO1 inhibitor as disclosed herein can inhibit B cell transformation. Preferably, an IDO1 inhibitor as disclosed herein can inhibit EBV-induced B cell transformation. Transformation can be analysed by methods known in the art, for example using a transformation efficiency assay. In this assay B cells are seeded into a cell culture plate and infected with increasing virus concentrations. An IDO1 inhibitor can be added immediately after infection. After an incubation period of 5 weeks, the number of wells positive for LCL outgrowth are counted. Alternatively, any other suitable assay can be used. Suitably, an IDO1 inhibitor as disclosed herein can inhibit B cell transformation at a concentration of about 200 μM or less, about 150 μM or less, about 100 μM or less, about 50 μM or less, about 20 μM or less, about 15 μM or less, about 10 μM or less, about 5 μM or less, or about 1 μM or less, preferably about 100 μM or less or about 10 μM or less in the assays described herein. An IDO1 inhibitor as disclosed herein can be any one of the IDO inhibitors as disclosed herein that can inhibit B cell transformation, preferably EBV-induced B cell transformation.
# Bulk B cells were seeded at a final concentration of 1×10^6 cells/ml in LCM-10 medium in a 96-well round bottom plate and infected with increasing concentration of EBV B95-8 (MOI 1×10^3-1×10^−4) by spinoculation. […] 5 weeks post-infection the number of wells with morphologic changes of transformation was counted and plotted as percentage of wells positive for LCL outgrowth against virus concentration in MOI.
# CD8+ T cells = test: CD8+ T cell expansion, humanized mouse model of EBV infection; type: in vivo, humanized NSG mice; details: Epacadostat i.p.
# Method: (§1) Median values from the indicated individual measurements are shown, compared using two-tailed Student's t-test.
# Data are shown as medians and two-tailed Student's t-test was used to compare groups.
# (§2) A humanized mouse model of EBV infection was then used to directly interrogate the role of IDO1 in EBV-driven immune dysregulation and lymphomagenesis. Briefly, NSG mice (Jackson Laboratory, Bar Harbor, ME, USA) were injected with human hematopoietic progenitor cells shortly after birth, and reconstitution with human immune system components was confirmed at 3-4 months of age (data not shown). […]. Efficacy of Epacadostat-mediated IDO1 inhibition was verified by quantifying tryptophan and L-kynurenine plasma levels (FIG. 10). EBV viral loads were assessed in DNA preparations from whole blood at week 2, 3, 4, and 5 pi, and in the spleen at the day of sacrifice, using Taqman real-time PCR with modified primers (5′-[…]-3′ and 5′-[…]-3′) and a fluorogenic probe (5′-FAM […]-TAMRA-3′) to detect the conserved EBV BamHI-W fragment. Samples were analyzed in triplicates and run on a CFX384 Touch Real-time PCR Detection System (Bio-Rad). DNA from whole blood was extracted with the NucliSENS EasyMAG System (Biornerieux) and DNA from splenic tissues was isolated using the DNeasy Blood and Tissue kit (QIAGEN), according to the manufacturer's recommendations.
# EBV = EBV viral loads in blood and spleen, humanized mouse model (Taqman real-time PCR); type: in vivo, humanized NSG mice
# Method: […]. Data are shown as median values from the indicated individual measurements, compared using two-tailed Student's t-test.
# as §1, §2
# EBV-positive tumors = test: EBV-positive tumor burden, humanized mouse model of EBV infection; type: in vivo, humanized NSG mice; details: Epacadostat i.p. vs vehicle, n=10 each (FIG. 13A-13C); text concludes reduced lymphomagenesis
# Method: […]. A Chi-Square test was used to compare groups.
# (lower panels) are shown, stained with hematoxylin and eosin (HE) (left panels) and EBER FISH (right panels).
# A Chi-Square test was used to compare groups. […].
# as §2
# IDO1 = IDO1 inhibition in humanized mouse model of EBV infection: tryptophan and L-kynurenine levels; type: in vivo, humanized NSG mice; details: Epacadostat 200 mg/kg i.p.; d -7, day 2 and day 7 pi; vs vehicle (FIG. 10)
# Method: Data are shown as box and whiskers (median, IQR and range) and compared by two-tailed Student's t-test.
# as §2
# [3] = 5 weeks post infection (FIG. 6A)
compound,measurement,setting,value
C[C@@H](C(=O)Nc1ccc(Cl)cc1)C1CCC(c2ccnc3ccc(F)cc23)CC1 (stereo partly shown) [BMS-986205],EBV driven B cell proliferation,[1],inhibited in a dose-dependent manner
same,EBV driven B cell transformation,"[2]; 10 μM BMS-986205 added at 0 hpi, analyzed 5 weeks post infection, vs vehicle",efficiently suppressed
"Nc1ccccc1C(=O)C[C@H](N)C(=O)O [L-KYNU, L-Kynurenine]",restoration of EBV's capacity to latently infect/transform B cells in the presence of BMS-986205,[2]; [3],partially restored
same,rescue of the capacity of EBV to transform IDO1-blocked B cells,[2],partially and dose-dependently rescued
O=C(O)c1ccc[n+]([C@@H]2O[C@H](COP(=O)(O)O)[C@@H](O)[C@H]2O)c1 [NaMN],restoration of EBV's capacity to latently infect/transform B cells in the presence of BMS-986205,[2]; [3],fully restored
same,transformation efficiency compared to vehicle,"[2]; 10 μM BMS-986205 plus 500 μM NaMN, day 0, 5 weeks post infection (FIG. 6A)",slightly increased
same,rescue of transformation of B cells in the presence of Epacadostat,"[2]; 100 μM Epacadostat plus 500 μM NaMN, day 0, 5 weeks post infection (FIG. 6B)",fully rescued
same,rescue of the capacity of EBV to transform IDO1-blocked B cells,[2],fully rescue
NS(=O)(=O)NCCNc1nonc1C(=NO)Nc1ccc(F)c(Br)c1 [Epacadostat],Splenic CD8VCD4^+ T cell ratios,CD8+ T cells; day of sacrifice (FIG. 12C),remained unchanged
same,expansion of peripheral blood CD8+ T cells,"CD8+ T cells; week 0 to week 5 pi, vs vehicle (FIG. 12A and 12B)",prevented
same,splenic viral loads,"EBV; Epacadostat i.p., 5 weeks pi, vs vehicle-treated (FIG. 11B)",borderline reduced
same,blood EBV load,"EBV; Epacadostat i.p., AUC of viral load 2-5 weeks pi, vs vehicle-treated (FIG. 11A)",efficiently reduced
same,effect on viral loads,EBV; treated throughout the experiment and also treated for only 2 weeks after infection (data not shown),observed
same,effect on EBV-driven B cell tumorigenesis (macroscopic and microscopic tumor burden),EBV-positive tumors,equally clear
same,transformation of EBV-infected B cells,"[2]; 100 μM Epacadostat added at 0 hpi, 5 weeks post infection (FIG. 6B)",efficiently suppressed
same,efficacy of IDO1 inhibition by tryptophan and L-kynurenine plasma levels,IDO1,verified
